These results are taken from ChEMBL document CHEMBL5604065, “ASAP - DENV-3 NS2B-NS3 protease fluorescence dose response” (2024).

Several values for one entry are separate records, joined by “and”; a condition that tells them apart may be missing. Equal values may be shown once.

The target of the assay is T1, NS3 protease (dengue virus type 3, UniProt A0A0B5JFF1).
T1 sequence (A0A0B5JFF1 whole entry): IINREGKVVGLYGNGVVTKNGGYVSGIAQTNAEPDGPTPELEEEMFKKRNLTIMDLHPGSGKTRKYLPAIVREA
Briefly: Functional biochemical assay to identify treatments for viral infectious disease that targets Dengue virus type 3 NS2B-NS3 protease. Utilizing a direct enzyme activity measurement method, reading the fluorescence intensity is used to characterize the relative potency of inhibitors as IC50. Details: species or system Philippines/H87/1956.
As for `N=C(N)NCCC[C@H](NC(=O)c1nccs1)C(=O)N[C@@H](CCCCN)C(=O)N[C@@H](C(N)=O)c1ccc(OCc2ccc(C(F)(F)F)cc2)cc1`, the IC50 is 2.22 µM (2×) and 2.34 µM and 1.63 µM and 2.19 µM and 2.45 µM and 1.49 µM.

Take `N=C(N)NCCC[C@H](NC(=O)[C@H](Cc1ccc(CN)cc1)NC(=O)c1ccccc1)B(O)O`: the concentration for half-maximal inhibition (IC50) is 0.819 µM and 0.784 µM and 0.98 µM. With `COCCNC(=O)[C@H](Nc1ccc2c(c1)CNC2)c1cc(Cl)cc(C2CC2)c1` the figure was 63.4 µM; with `O=C(NCC(F)F)[C@H](Nc1ccc2c(c1)CNC2)c1cc(Cl)cc(C2CC2)c1`, 28.5 µM and > 99.5 µM and 23.8 µM; with `O=C(Nc1ccc2c(c1)CNCC2)c1cc(Cl)cc2[nH]ncc12`, 93.9 µM. Consider `CC(C)(C)c1cc(Br)cc(C(=O)Nc2ccc3c(c2)CNC3)c1`, for which the IC50 was more than 99.5 µM. `Clc1ccc2[nH]cc(Cc3ccc(-c4nn[nH]n4)cc3)c2c1` gave an IC50 of 44.1 µM. This lies in the double-digit micromolar range.

In the case of `CN1Cc2ccc(NC(=O)c3cc(Cl)cc4[nH]ncc34)cc2C1`, the IC50 came to 92.8 µM. With `O=C(Nc1ccc2c(c1)CNC2)c1cccc(-c2cnco2)c1` the figure was 21.2 µM; with `Cn1cc2cc(Cl)cc(C(=O)Nc3ccc4c(c3)CNC4)c2n1`, more than 99.5 µM. With `O=C(Nc1ccc2c(c1)CNC2)c1cc(Br)cc2ccccc12` the figure was more than 99.5 µM; with `O=C(Nc1ccc2c(c1)CNC2)c1cc(Cl)cc2c1CCC2`, more than 99.5 µM; with `CNC(=O)[C@H](Nc1ccc2c(c1)CNC2)c1cc(Cl)cc(C2CC2)c1`, more than 99.5 µM. On to `O=C1Cc2c(cccc2C(=O)Nc2ccc3c(c2)CNC3)N1`, for which half-maximal inhibition (IC50) required 14.2 µM. In other words, the double-digit micromolar range. On to `N#C[C@H](Nc1ccc2c(c1)CNC2)c1cc(Cl)cc(C2CC2)c1`, for which the IC50 is more than 99.5 µM. In turn, `O=C(Nc1cc(Cl)cc([C@H]2CN(Cc3ccccc3)C[C@@H]2c2cccc(-c3nn[nH]n3)c2)c1)OCc1ccccc1` displayed an IC50 of 6.03 µM. In the case of `Clc1cc(CNc2ccc3c(c2)CNC3)c2cn[nH]c2c1`, inhibition was half-maximal at 42.2 µM (IC50). This IC50 is about 7-fold higher than that of the compound before. Compound `CC(C)c1cc(Br)cc(C(=O)Nc2ccc3c(c2)CNC3)c1` displayed an IC50 of more than 99.5 µM.

`O=C(NC1CCOCC1)[C@H](Nc1ccc2c(c1)CNC2)c1cc(Cl)cc(C2CC2)c1` returned an IC50 of 53.4 µM. For `Cn1cc(CNC(=O)[C@H](Nc2ccc3c(c2)CNC3)c2cc(Cl)cc(C3CC3)c2)cn1`, half-maximal inhibition (IC50) required 81.8 µM. In turn, `O=C(Nc1cc(Cl)cc(C(=O)Nc2ccc3c(c2)CNC3)c1)OCc1ccccc1` returned an IC50 of 72.5 µM.

Turning to `Cn1cc(CCc2nc3c(C(=O)Nc4ccc5c(c4)CNC5)cc(Cl)cc3[nH]2)cn1`, half-maximal inhibition (IC50) was put at 23.7 µM. Consider `O=C(Nc1ccc2c(c1)CNC2)c1cc(F)cc2[nH]ncc12`, for which the IC50 was 23.4 µM.

The compound `Cc1c(C(=O)Nc2cc([C@H]3CCOC3)ccn2)cc(C2CC2)n1C` showed an IC50 of more than 99.5 µM. In turn, `O=C(Nc1ccc2c(c1)CNC2)c1cc(Cl)cc2ccncc12` yielded an IC50 of 69.8 µM. In the case of `O=C1Cc2c(cc(Br)cc2C(=O)Nc2ccc3c(c2)CNC3)N1`, half-maximal inhibition (IC50) required 17.8 µM.

With `CC(C)NC(=O)[C@H](Nc1ccc2c(c1)CNC2)c1cc(Cl)cc2[nH]c(-c3ccccc3)nc12`, the IC50 is 7.06 µM and 2.21 µM.

As for `O=C(Nc1cc(Cl)cc([C@H](C#CCO)Nc2cccc(-c3nn[nH]n3)c2)c1)OCc1ccccc1`, the IC50 came to 11.9 µM. `O=C(Nc1ccc2c(c1)CNC2)c1cc(Cl)cc2cn[nH]c12` came in with an IC50 of 41.9 µM. With `NCc1cccc([C@H]2C[C@@H]2c2cc(Cl)cc(NC(=O)OCc3ccccc3)c2)c1` the figure was 7.85 µM; with `N#C[C@H](Nc1cccc(-c2nn[nH]n2)c1)c1cc(Cl)cc(NC(=O)OCc2ccccc2)c1`, 9.59 µM.

In the case of `O=C(Nc1ccc2c(c1)CNC2)c1cc(Cl)cc2[nH]ncc12`, the IC50 was 13.4 µM. Compound `O=C(Nc1ccc2c(c1)CNC2)c1cc(Br)cc2[nH]c(=O)[nH]c12` gave an IC50 of 21.5 µM. Compared with the last compound, the IC50 is about 1.6-fold higher.

For `N#C[C@H](Nc1ccc2c(c1)CNC2)c1cc(Cl)cc2[nH]ncc12`, the IC50 is more than 99.5 µM. As for `O=C(Nc1cc(Cl)cc(C(=O)Nc2cccc([C@H]3C[C@H]3C(=O)O)c2)c1)OCc1ccccc1`, the IC50 was 22.6 µM. For the compound `Clc1cc([C@@H]2C[C@H]2c2cccc(C3CCNCC3)c2)c2cn[nH]c2c1`, the IC50 stood at 6.45 µM. Take `Cc1c(C(=O)Nc2cc(-c3cccnc3)ccn2)cc(C2CC2)n1C`: the IC50 amounted to 6.22 µM. The compound `Cc1nc2c(C(=O)Nc3ccc4c(c3)CNC4)cc(Cl)cc2[nH]1` returned an IC50 of more than 99.5 µM. Turning to `O=C(Nc1cc(Cl)cc(-c2ccc3[nH]c(C(=O)O)cc3c2)c1)OCc1ccccc1`, the IC50 worked out at 5 µM.

As for `O=C(NCCC1CC1)[C@H](Nc1ccc2c(c1)CNC2)c1cc(Cl)cc(C2CC2)c1`, the IC50 was more than 99.5 µM. With `C=CC[C@H](Nc1cc(Cl)cc(NC(=O)OCc2ccccc2)c1)c1cccc(-c2nn[nH]n2)c1` the figure was 6.43 µM.

In turn, `CNC(=O)[C@H](Nc1cc(CN)cc(C(=O)O)c1)c1cc(Cl)cc(C2CC2)c1` registered an IC50 of more than 99.5 µM.

In turn, `O=C(NCC(F)F)[C@H](Nc1ccc2c(c1)CNC2)c1cc(F)cc2[nH]ncc12` registered a concentration for half-maximal inhibition (IC50) of 93.7 µM. For the compound `O=C(Nc1cc(Cl)cc([C@H]2C[C@@H]2c2cccc(C3CCNCC3)c2)c1)OCc1ccccc1`, it took 4.79 µM to reach half-maximal inhibition (IC50). The figure for `CC(C)CNC(=O)c1cc(Cl)ccc1NS(=O)(=O)c1ccc(Oc2ccccc2Cl)cc1` is 12.1 µM; for `O=C(NC1CCOCC1)[C@H](Nc1ccc2c(c1)CNC2)c1cc(Cl)cc2[nH]ncc12` it is 39.5 µM. Compound `CNC(=O)[C@H](Nc1cc(Cl)cc(NC(=O)OCc2ccccc2)c1)c1cccc(-c2nn[nH]n2)c1` yielded a concentration for half-maximal inhibition (IC50) of 40.4 µM.

Take `O=C(Nc1ccc2c(c1)CNC2)c1cc(F)c2[nH]ccc2c1`: the IC50 is more than 99.5 µM. Turning to `N[C@H]1CC[C@H](c2ccc(NC(=O)c3cc(Cl)cc(NC(=O)OCc4ccccc4)c3)cc2)C1`, the IC50 was 5.84 µM. `OCC#C[C@H](Nc1ccc2c(c1)CNC2)c1cc(Cl)cc2[nH]ncc12`: the IC50 stood at 26.2 µM. `NCc1cccc(NC(=O)c2cc(Cl)cc(NC(=O)OCc3ccccc3)c2)c1` yielded an IC50 of 26.8 µM.

Take `c1cc(C2CCN(Cc3c[nH]c4ccccc34)CC2)c2ccncc2c1`: the half-inhibitory concentration (IC50) was more than 99.5 µM.

`Cc1cccc(-c2nc3c(C(=O)Nc4ccc5c(c4)CNC5)cc(Cl)cc3[nH]2)c1O` displayed an IC50 of 4.44 µM. The compound `CNC(=O)[C@H](Nc1cccc(CN)c1)c1cc(Cl)cc(NC(=O)OCc2ccccc2)c1` had an IC50 of more than 99.5 µM.

In the case of `O=C(Nc1ccc2c(c1)CNC2)c1cccc2[nH]c(=O)[nH]c12`, the IC50 was found to be 40.8 µM. In other words, the double-digit micromolar range. `CCc1cc(C(=O)Nc2cccc(-n3nn[nH]c3=O)c2)sc1-c1ccc(Cl)cc1` showed an IC50 of 11.9 µM. On to `Cc1c(C(=O)Nc2cc(CCCN)ccn2)cc(C2CC2)n1C`, for which the IC50 was 34.5 µM. `NCc1ccc([C@H]2C[C@@H]2c2cc(Cl)cc(NC(=O)OCc3ccccc3)c2)cc1` had an IC50 of 6.85 µM.

The compound `CCOCCNC(=O)[C@H](Nc1ccc2c(c1)CNC2)c1cc(Cl)cc2[nH]ncc12` registered an IC50 of more than 99.5 µM.

In turn, `O=C(Nc1cc(Cl)cc(C(=O)Nc2ccc3c(c2)CCNC3)c1)OCc1ccccc1` displayed an IC50 of 24.4 µM. The figure for `Cc1ccc(NC(=O)c2cc(Cl)cc(NC(=O)OCc3ccccc3)c2)cc1CN` is 57.7 µM; for `Cc1[nH]c2ccccc2c1CN1CCC(c2c[nH]c3ncccc23)CC1` it is more than 99.5 µM. `CNC(=O)[C@H](Nc1cc(CN)cc(-c2nn[nH]n2)c1)c1cc(Cl)cc(C2CC2)c1` displayed an IC50 of more than 99.5 µM. Take `O=C(Nc1cc(Cl)cc(C(=O)Nc2cccc(-n3nn[nH]c3=O)c2)c1)OCc1ccccc1`: it took 10.5 µM to reach half-maximal inhibition (IC50). This lies in the double-digit micromolar range.

As usually defined, the IC50 is the concentration that gives 50% inhibition. Low values mean greater potency, high ones weaker potency.
